# In patent US8273774B2, “Phenoxypyridinylamide compounds” (AstraZeneca AB, priority 2008, dated 2012):
# Where a name gives a salt, the structure may show the parent alone.
# Biological target: recombinant Human Phosphodiesterase B2 (PDE4B2) (Homo sapiens, UniProt Q07343)
# Experiment: Human Phosphodiesterase B2 Radiometric Assay
# Format: biochemical
# Settings: 0.1 μg/mL recombinant PDE4B2; preincubated at 30 C for 30 min; [3H]cyclic AMP 8 nM, stopped after 20 min; yttrium silicate SPA beads; read-out: PDE4B2 pIC50 (converted)
# Method: Human Phosphodiesterase B2 Radiometric Assay
# The assay uses recombinant Human Phosphodiesterase B2 (PDE4B2) produced in house (PrAZL0163), stored at −20° C. This assay is based on the observation that 5′AMP, the product of the reaction catalysed by PDE4, binds preferentially to yttrium silicate SPA beads (Amersham Biosciences, UK) compared to the substrate, cAMP. Compounds at the appropriate concentration were preincubated at 30 C for 30 min with an assay buffer containing 50 mM HEPES (pH 7.5), 8.3 mM MgCl2, 1.7 mM EGTA, 0.01% (w/v) Brij®35 and 0.1 μg/mL recombinant PDE4B2. The reaction was started by the addition of [3H]cyclic AMP to give a final concentration of 8 nM, and was stopped 20 min after the addition of the substrate by the addition of yttrium silicate SPA beads containing 18 mM Zn SO4. Bound […] was measured using a Topcount NXT (Packard Bioscience, UK). pIC50 values (presented in Table 2) were determined using Xlfit3 curve fitting, using model 205.
# Sequence of recombinant Human Phosphodiesterase B2 (PDE4B2) (Q07343 1-564 isoform Q07343-2): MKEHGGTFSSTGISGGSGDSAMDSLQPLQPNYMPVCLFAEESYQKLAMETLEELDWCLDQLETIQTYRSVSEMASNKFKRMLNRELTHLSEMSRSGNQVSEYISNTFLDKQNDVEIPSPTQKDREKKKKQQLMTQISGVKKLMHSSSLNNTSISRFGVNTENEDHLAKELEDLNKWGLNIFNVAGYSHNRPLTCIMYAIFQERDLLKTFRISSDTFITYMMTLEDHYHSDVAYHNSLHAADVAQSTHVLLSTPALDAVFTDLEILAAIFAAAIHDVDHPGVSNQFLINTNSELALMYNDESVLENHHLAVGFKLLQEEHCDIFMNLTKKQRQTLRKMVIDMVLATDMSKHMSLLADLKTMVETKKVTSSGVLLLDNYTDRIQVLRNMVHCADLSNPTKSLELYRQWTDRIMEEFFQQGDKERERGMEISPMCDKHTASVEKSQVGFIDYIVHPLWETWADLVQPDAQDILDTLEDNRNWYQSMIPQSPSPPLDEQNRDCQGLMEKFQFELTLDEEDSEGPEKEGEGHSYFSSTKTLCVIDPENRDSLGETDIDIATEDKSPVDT
row,Structure (SMILES),IC50
1,"C[C@@H]1CN(Cc2ccc(-c3cccc(Oc4ncc(F)cc4C(=O)N[C@H]4CC[C@@H](NC(=O)c5cn6cc(F)ccc6n5)CC4)c3)c(CN3CCSCC3)c2)C[C@H](C)N1 [Example 169, N-((1s,4s)-4-(2-(4′-(((3S,5R)-3,5-Dimethylpiperazin-1-yl)methyl)-2′-(thiomorpholinomethyl)biphenyl-3-yloxy)-5-fluoronicotinamido)cyclohexyl)-6-fluoroimidazo[1,2-a]pyridine-2-carboxamide]",0.02 nM
2,"O=C(N[C@H]1CC[C@@H](NC(=O)c2cc(F)cnc2Oc2cccc(-c3ccc(CCCN4CCNCC4)cc3)c2)CC1)c1cn2cc(F)ccc2n1 [Example 121, 6-fluoro-N-((1s,4s)-4-(5-fluoro-2-(4′-(3-(piperazin-1-yl)propyl)biphenyl-3-yloxy)nicotinamido)cyclohexyl)imidazo[1,2-a]pyridine-2-carboxamide]",0.0631 nM
3,"O=C(N[C@H]1CC[C@@H](NC(=O)c2cc(F)cnc2Oc2cccc(-c3ccc(CCCN4CCNCC4)cc3)c2)CC1)c1cn2c(n1)CCCC2 [Example 137, N-((1s,4s)-4-(5-fluoro-2-(4′-(3-(piperazin-1-yl)propyl)biphenyl-3-yloxy)nicotinamido)cyclohexyl)-5,6,7,8-tetrahydroimidazo[1,2-a]pyridine-2-carboxamide]",0.0501 nM
4,"Cc1cc(CN(Cc2cc(C)n(C)n2)[C@H]2CC[C@@H](NC(=O)c3cc(F)cnc3Oc3cccc(-c4ccc(O)cc4CN4CCOCC4)c3)CC2)nn1C [Example 4, N-((1s,4s)-4-(bis((1,5-dimethyl-1H-pyrazol-3-yl)methyl)amino)cyclohexyl)-5-fluoro-2-(4′-hydroxy-2′-(morpholinomethyl)biphenyl-3-yloxy)nicotinamide trifluoroacetate]",63.1 nM
5,"C[C@@H]1CN(Cc2ccc(-c3cccc(Oc4ncc(F)cc4C(=O)N[C@H]4CC[C@@H](NC(=O)c5ccc6ccccc6n5)CC4)c3)c(CN3CCOCC3)c2)C[C@H](C)N1 [Example 147, N-((1s,4s)-4-(2-(4′-(((3S,5R)-3,5-dimethylpiperazin-1-yl)methyl)-2′-(morpholinomethyl)biphenyl-3-yloxy)-5-fluoronicotinamido)cyclohexyl)quinoline-2-carboxamide]",0.0501 nM
6,"C[C@@H]1CN(Cc2ccc(-c3cccc(Oc4ncc(F)cc4C(=O)N[C@H]4CC[C@@H](NC(=O)c5cc6ccccn6n5)CC4)c3)cc2O)C[C@H](C)N1 [Example 97, N-((1s,4s)-4-(2-(4′-(((3S,5R)-3,5-dimethylpiperazin-1-yl)methyl)-3′-hydroxybiphenyl-3-yloxy)-5-fluoronicotinamido)cyclohexyl)pyrazolo[1,5-a]pyridine-2-carboxamide]",0.126 nM
7,"Cc1nc(C(=O)N[C@H]2CC[C@@H](NC(=O)c3cc(F)cnc3Oc3cccc(-c4ccc(CN5C[C@@H](C)N[C@@H](C)C5)cc4)c3)CC2)cs1 [Example 54, N-((1s,4s)-4-(2-(4′-(((3S,5R)-3,5-dimethylpiperazin-1-yl)methyl)biphenyl-3-yloxy)-5-fluoronicotinamido)cyclohexyl)-2-methylthiazole-4-carboxamide]",0.0631 nM
8,"Cc1cc(C(=O)N[C@H]2CC[C@@H](NC(=O)c3cc(F)cnc3Oc3cccc(-c4ccc(CCCN5CCNCC5)cc4)c3)CC2)n[nH]1 [Example 157, 5-Fluoro-N-((1s,4s)-4-(5-methyl-1H-pyrazole-3-carboxamido)cyclohexyl)-2-(4′-(3-(piperazin-1-yl)propyl)biphenyl-3-yloxy)nicotinamide]",0.0794 nM
9,"CC(C)NC(=O)CN1CCN(Cc2ccc(-c3cccc(Oc4ncc(F)cc4C(=O)N[C@H]4CC[C@@H](NC(=O)c5cccc6[nH]cnc56)CC4)c3)c(CN3CCOCC3)c2)CC1 [Example 201, N-((1s,4s)-4-(5-fluoro-2-(4′-((4-(2-(isopropylamino)-2-oxoethyl)piperazin-1-yl)methyl)-2′-(morpholinomethyl)biphenyl-3-yloxy)nicotinamido)cyclohexyl)-1H-benzo[d]imidazole-4-carboxamide]",0.0158 nM
10,"Cc1cccc2nc(C(=O)N[C@H]3CC[C@@H](NC(=O)c4cc(F)cnc4Oc4cccc(-c5ccc(O)cc5CN(C)C)c4)CC3)cn12 [Example 11, N-((1s,4s)-4-(2-(2′-((dimethylamino)methyl)-4′-hydroxybiphenyl-3-yloxy)-5-fluoronicotinamido)cyclohexyl)-5-methylimidazo[1,2-a]pyridine-2-carboxamide]",0.0501 nM
11,"CC(C)c1nc(C(=O)N[C@H]2CC[C@@H](NC(=O)c3cc(F)cnc3Oc3cccc(-c4ccc(O)c(CN5C[C@@H](C)N[C@@H](C)C5)c4)c3)CC2)cs1 [Example 90, N-((1s,4s)-4-(2-(3′-(((3S,5R)-3,5-dimethylpiperazin-1-yl)methyl)-4′-hydroxybiphenyl-3-yloxy)-5-fluoronicotinamido)cyclohexyl)-2-isopropylthiazole-4-carboxamide]",0.2 nM
12,"Cc1nc(C(=O)N[C@H]2CC[C@@H](NC(=O)c3cc(F)cnc3Oc3cccc(-c4ccc(CN5CCCOCC5)cc4)c3)CC2)cs1 [Example 55, N-((1s,4s)-4-(2-(4′-((1,4-oxazepan-4-yl)methyl)biphenyl-3-yloxy)-5-fluoronicotinamido)cyclohexyl)-2-methylthiazole-4-carboxamide]",0.1 nM

# The next lines start with the values.
row,IC50,Structure (SMILES)
1,0.0158 nM,"Cc1cccc2nc(C(=O)N[C@H]3CC[C@@H](NC(=O)c4cc(F)cnc4Oc4cccc(-c5ccc(O)cc5CN5CCOCC5)c4)CC3)cn12 [Example 18, N-((1s,4s)-4-(5-fluoro-2-(4′-hydroxy-2′-(morpholinomethyl)biphenyl-3-yloxy)nicotinamido)cyclohexyl)-5-methylimidazo[1,2-a]pyridine-2-carboxamide]"
2,0.02 nM,"Cc1nc(C(=O)N[C@H]2CC[C@@H](NC(=O)c3cc(F)cnc3Oc3cccc(-c4ccc(O)cc4CN4CCCOCC4)c3)CC2)cs1 [Example 15, N-((1s,4s)-4-(2-(2′-((1,4-oxazepan-4-yl)methyl)-4′-hydroxybiphenyl-3-yloxy)-5-fluoronicotinamido)cyclohexyl)-2-methylthiazole-4-carboxamide]"
3,0.2 nM,"CC(C)c1ncc(C(=O)N[C@H]2CC[C@@H](NC(=O)c3cc(F)cnc3Oc3cccc(-c4ccc(O)cc4CN4CCOCC4)c3)CC2)s1 [Example 37, N-((1s,4s)-4-(5-fluoro-2-(4′-hydroxy-2′-(morpholinomethyl)biphenyl-3-yloxy)nicotinamido)cyclohexyl)-2-isopropylthiazole-5-carboxamide]"
4,0.0316 nM,"Cc1cccc2nc(C(=O)N[C@H]3CC[C@@H](NC(=O)c4cc(F)cnc4Oc4cccc(-c5ccc(O)cc5CN5CCCOCC5)c4)CC3)cn12 [Example 20, N-((1s,4s)-4-(2-(2′-((1,4-oxazepan-4-yl)methyl)-4′-hydroxybiphenyl-3-yloxy)-5-fluoronicotinamido)cyclohexyl)-5-methylimidazo[1,2-a]pyridine-2-carboxamide]"
5,0.0631 nM,"O=C(N[C@H]1CC[C@@H](NC(=O)c2cc(F)cnc2Oc2cccc(-c3ccc(O)cc3CN3CCOCC3)c2)CC1)c1csc(CO)n1 [Example 58, N-((1s,4s)-4-(5-fluoro-2-(4′-hydroxy-2′-(morpholinomethyl)biphenyl-3-yloxy)nicotinamido)cyclohexyl)-2-(hydroxymethyl)thiazole-4-carboxamide]"
